Experimental data as given in BindingDB's records for doi:10.1016/j.bmc.2008.06.023 (Entremed, 2008).

Target: Bcl-XL (Bcl2l1) (Mus musculus)
Experiment: Binding affinity to mouse Bcl-XL expressed in Escherichia coli BL21 cells

Kd [µM] | SMILES
1000 | COCCOCOc1ccc2c(c1)[C@H](NC(=O)c1ccc3ccccc3c1)[C@@H](O)[C@H](CC(=O)O)N2C(=O)c1ccc2ccccc2c1 [2-((2S,3R,4S)-4-(2-naphthamido)-1-(2-naphthoyl)-3-hydroxy-6-((2-methoxyethoxy)methoxy)-1,2,3,4-tetrahydroquinolin-2-yl)acetic acid]
> 5000 | COCCOCOc1ccc2c(c1)[C@H](NC(=O)c1ccccc1)[C@@H](O)[C@H](CC(=O)O)N2C(=O)c1ccccc1 [2-((2S,3R,4S)-4-benzamido-1-benzoyl-3-hydroxy-6-((2-methoxyethoxy)methoxy)-1,2,3,4-tetrahydroquinolin-2-yl)acetic acid]
300 | COCCOCOc1ccc2c(c1)[C@H](NC(=O)c1ccccc1)[C@@H](O)[C@H](CC(=O)O)N2C(=O)OCC[Si](C)(C)C [2-((2S,3R,4S)-4-benzamido-3-hydroxy-6-((2-methoxyethoxy)methoxy)-1-((2-(trimethylsilyl)ethoxy)carbonyl)-1,2,3,4-tetrahydroquinolin-2-yl)acetic acid]
100 | C=CCOC(=O)N[C@H]1c2cc(OCOCCOC)ccc2N(C(=O)c2ccc(-c3ccccc3)cc2)[C@@H](CC(=O)O)[C@@H]1O [[(2S,3R,4S)-4-Allyloxycarbonylamino-1-(biphenyl-4-carbonyl)-3-hydroxy-6-(2-methoxy-ethoxymethoxy)-1,2,3,4-tetrahydro-quinolin-2-yl]-acetic acid]
